From US5252581A, “Substituted aminothienopyridines, pharmaceutical composition and use” (Hoechst-Roussel Pharmaceuticals Inc., priority 1992, dated 1993)
Structures can show the parent of a compound that is named as a salt. Where two headings read alike, the source gives them in different places.

How the values were obtained:
[1] = target: T1, NMDA associated strychnine-insensitive glycine modulatory site (Rattus norvegicus, UniProt P35439); experiment: Enhancement of [^3 H]TCP Binding; format: biochemical, rat (Sprague Dawley); conditions: for Emax: read-out: Enhancement of [^3 H]TCP Binding, % maximal glycine response
T1 construct: prepared from cortical tissue obtained from male Sprague Dawley rats; from tissue; host or cells: male Sprague Dawley rat cortex, crude synaptosomal homogenate

[2] = target: T2, glycine binding site associated with the N-methyl-D-aspartate (NMDA) receptor complex (Rattus norvegicus, UniProt P35439); experiment: Displacement of [^3 H]Glycine Binding; parameters: species or system rat (Wistar)
T2 construct: Cortices of male Wistar rats are dissected over ice; from tissue; host or cells: male Wistar rat cortex, Triton-treated membranes
Procedure: Aliquots of 20 μl to the assay tube will give a final concentration of 10^-3 M.
4. […] Aliquots of 50 μl are added to yield a final assay concentration of 10 nM.
6. […] A stock solution of Triton-X 100, 10% can be prepared and stored in the refrigerator. Dilute 1.0 ml of Triton-X 100 to 10.0 ml with distilled water. On the day of the assay, the tissue homogenate (1:15 dilution) is preincubated with an aliquot of the 10% solution to give a final concentration of 0.04% (v/v).
Three cortices are pooled for one preparation.
1. Prepare assay tubes in triplicate.
2. Following the addition of the tissue, the tubes are incubated for 20 minutes in an ice-bath at 0°-4° C.
3. […] IC50 values for the competing compound are calculated by log-probit analysis of the data.

[3] = target: T3, ^3 H-Norepinephrine reuptake (Rattus norvegicus, UniProt Q63380); experiment: Inhibition of Biogenic Amine Reuptake, ^3 H-Norepinephrine (WB); format: biochemical
T3 construct: from tissue; host or cells: whole brain (WB), rat inferred

[4] = target: T4, 5HT3 Receptor (Homo sapiens, UniProt P46098); experiment: 5HT3 Receptor Binding Assay
T4 sequence (P46098 24-478): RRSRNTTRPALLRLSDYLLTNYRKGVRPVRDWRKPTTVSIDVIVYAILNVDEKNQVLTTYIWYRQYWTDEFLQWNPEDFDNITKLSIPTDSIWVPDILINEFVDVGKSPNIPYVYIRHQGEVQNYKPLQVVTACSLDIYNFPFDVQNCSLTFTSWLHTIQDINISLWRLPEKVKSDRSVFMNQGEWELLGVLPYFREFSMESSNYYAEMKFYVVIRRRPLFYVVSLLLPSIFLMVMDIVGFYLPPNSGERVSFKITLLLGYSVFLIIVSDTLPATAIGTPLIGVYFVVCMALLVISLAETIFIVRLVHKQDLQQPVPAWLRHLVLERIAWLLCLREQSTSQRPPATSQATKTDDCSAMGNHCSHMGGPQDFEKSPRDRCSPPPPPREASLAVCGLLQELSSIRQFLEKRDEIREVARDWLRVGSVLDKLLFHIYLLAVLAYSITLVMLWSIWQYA

[5] = target: T5, serotonin (5HT) uptake (Rattus norvegicus, UniProt P31652); experiment: ^3 H-Serotonin Uptake in Rat Whole Brain Synaptosomes; format: biochemical, rat (Wistar)
T5 construct: from tissue; host or cells: male Wistar rat whole brain minus cerebella, crude synaptosomes (S1)
Procedure: A. Animals: Male CR Wistar rats (100-125 g).
3. […] This is used to dilute the specific activity of radiolabeled 5HT.
The dilution factor is 0.8.
5. For most assays, a 1 mM solution of the test compound is made up in suitable solvent and serially diluted such that the final concentration in the assay ranges from 2×10^-8 to 2×10^-5 M. Seven concentrations are used for each assay.
Male Wistar rats are decapitated and the brain rapidly removed. […] Homogenization should be done with 4-5 up and down strokes at medium speeds to minimize synaptosome lysis. […] The supernatant (S1) is decanted and is used for uptake experiments.
Tubes are incubated at 37° C. under a 95% O2 /5% CO2 atmosphere for 5 minutes. For each assay, 3 tubes are incubated with 20 μl of vehicle at 0° C. in an ice bath. After incubation all tubes are immediately centrifuged at 4000 g for 10 minutes. The supernatant fluid is aspirated and the pellets dissolved by adding 1 ml of solubilizer (Triton X-100+50% EtOH, 1:4 v/v). The tubes are vigorously vortexed, decanted into scintillation vials, and counted in 10 ml of Liquiscint scintillation counting cocktail. Active uptake is the difference between cpm at 37° C. and 0° C. The percent inhibition at each drug concentration is the mean of three determinations. IC50 values are derived from log-probit analysis.

[6] = target: T6, ^3 H-Dopamine reuptake (Rattus norvegicus, UniProt P23977); experiment: Inhibition of Biogenic Amine Reuptake, ^3 H-Dopamine (Str); format: biochemical; conditions: str. = striatum
T6 construct: str. = striatum; from tissue; host or cells: striatum, rat inferred
T6 sequence (P23977 whole entry): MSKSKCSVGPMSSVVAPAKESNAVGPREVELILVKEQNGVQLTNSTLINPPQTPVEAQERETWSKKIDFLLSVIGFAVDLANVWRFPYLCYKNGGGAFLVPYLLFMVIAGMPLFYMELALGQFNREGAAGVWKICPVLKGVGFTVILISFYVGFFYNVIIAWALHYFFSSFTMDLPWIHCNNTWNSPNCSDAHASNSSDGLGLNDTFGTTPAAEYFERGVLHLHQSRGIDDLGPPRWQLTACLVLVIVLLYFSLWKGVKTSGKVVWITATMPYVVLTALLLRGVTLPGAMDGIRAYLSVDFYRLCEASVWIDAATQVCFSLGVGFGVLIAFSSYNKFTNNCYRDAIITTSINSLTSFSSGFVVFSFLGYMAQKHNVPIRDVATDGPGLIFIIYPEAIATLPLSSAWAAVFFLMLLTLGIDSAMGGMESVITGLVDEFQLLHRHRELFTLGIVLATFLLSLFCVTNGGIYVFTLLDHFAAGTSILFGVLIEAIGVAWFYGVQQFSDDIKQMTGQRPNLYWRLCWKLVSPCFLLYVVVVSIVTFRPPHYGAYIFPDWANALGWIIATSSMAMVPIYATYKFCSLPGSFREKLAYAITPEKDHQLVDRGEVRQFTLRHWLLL

T5 sequence (P31652 whole entry): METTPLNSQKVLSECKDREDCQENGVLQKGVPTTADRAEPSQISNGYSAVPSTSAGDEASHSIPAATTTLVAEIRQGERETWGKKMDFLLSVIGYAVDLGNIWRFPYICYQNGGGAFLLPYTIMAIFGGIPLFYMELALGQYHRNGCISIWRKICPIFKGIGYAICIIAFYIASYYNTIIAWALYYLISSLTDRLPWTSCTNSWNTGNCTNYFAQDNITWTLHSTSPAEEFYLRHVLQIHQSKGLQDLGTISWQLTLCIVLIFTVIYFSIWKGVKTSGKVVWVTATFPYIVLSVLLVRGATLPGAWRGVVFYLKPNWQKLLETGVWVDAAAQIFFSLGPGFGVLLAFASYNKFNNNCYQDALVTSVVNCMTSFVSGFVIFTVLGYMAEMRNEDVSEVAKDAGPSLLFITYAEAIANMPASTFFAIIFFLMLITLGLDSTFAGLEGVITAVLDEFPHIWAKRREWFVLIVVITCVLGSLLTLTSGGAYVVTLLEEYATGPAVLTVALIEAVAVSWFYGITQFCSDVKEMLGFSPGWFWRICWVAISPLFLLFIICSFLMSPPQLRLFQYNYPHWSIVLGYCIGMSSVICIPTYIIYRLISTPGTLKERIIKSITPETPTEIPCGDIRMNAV
T3 sequence (Q63380 1-617): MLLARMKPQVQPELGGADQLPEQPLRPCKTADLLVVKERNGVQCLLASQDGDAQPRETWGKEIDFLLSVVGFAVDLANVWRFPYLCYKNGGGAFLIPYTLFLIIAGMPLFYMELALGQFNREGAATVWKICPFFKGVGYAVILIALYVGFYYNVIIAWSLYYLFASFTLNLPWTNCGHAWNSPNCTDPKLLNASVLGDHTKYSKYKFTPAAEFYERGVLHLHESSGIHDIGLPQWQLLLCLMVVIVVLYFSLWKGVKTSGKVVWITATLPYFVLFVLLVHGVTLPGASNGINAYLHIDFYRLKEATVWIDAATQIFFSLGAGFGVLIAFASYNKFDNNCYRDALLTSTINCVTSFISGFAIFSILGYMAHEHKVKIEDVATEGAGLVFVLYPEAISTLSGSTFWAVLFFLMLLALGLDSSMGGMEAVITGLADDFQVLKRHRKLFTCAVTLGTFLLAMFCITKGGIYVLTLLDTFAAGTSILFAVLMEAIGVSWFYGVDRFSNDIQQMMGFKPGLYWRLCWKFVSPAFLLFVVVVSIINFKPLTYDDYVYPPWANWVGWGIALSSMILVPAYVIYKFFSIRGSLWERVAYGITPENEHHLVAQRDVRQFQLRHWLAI

Structure (SMILES): NCC(=O)Nc1csc2ncccc12 [2-Amino-N-(thieno[2,3-b]pyridin-3-yl)acetamide]
- EC50 ([1]; rat cortical homogenate, 2.5 nM [^3 H]TCP, 10^-7 M L-glutamic acid): 14.4 µM
- Emax [1]: 39%
- IC50 [2]: 21.8 µM

Structure (SMILES): CCCN(c1ccncc1)c1csc2ncccc12 [3-(Propyl-4-pyridinylamino)-thieno[2,3-b]-pyridine hydrochloride]
- IC50 [3]: 0.71 µM
- IC50 [4]: 4.6 µM
- IC50 [5]: 0.071 µM

Structure (SMILES): N[C@@H]1CONC1=O [D-cycloserine, reference compound]
- Emax [1]: 80%

Structure (SMILES): CCCN(c1ccncc1)c1csc2cnccc12 [3-(Propyl-4-pyridinylamino)thieno[2,3-c]pyridine]
- IC50 ([5]; […]): 0.54 µM

Structure (SMILES): CN(C)CCCN1c2ccccc2CCc2ccc(Cl)cc21 [Clomipramine, reference compound]
- IC50 [4]: > 10 µM
- IC50 [6]: 31.5 µM

Structure (SMILES): NCC(=O)O [Glycine, glycine, reference compound]
- Emax [1]: 100%
